Results on four compounds are retold here after patent US20240033228A1, “MESOPOROUS NANOPARTICLES SYSTEM TO INCREASE THE BIOFILM ERADICATION ACTIVITY BY MEANS OF THE CARRYING AND THE ADMINISTRATION OF AT LEAST ONE ACTIVE INGREDIENT AND RELATED PRODUCTION METHOD” (Brenta S.r.l., priority 2020, published 2024).

SMILES strings stand for the structures. Values after ≈ are worked out from the molar mass of the structure shown.

The conditions of series [1]: footnote a not given; cited from earlier work.
For series [2] the following is noted: water; cited from earlier work.
The subject of the next series is K. pneumoniae. The series can be described thus: Plate antimicrobial tests. The conditions noted are these: plate test; strain not given. It is filed as cell-based. How it is done:
(§1) Plate antimicrobial tests were conducted to verify the inactivity of the nanoparticles and to confirm that the antibacterial activity is linked to being loaded with at least one API. The negative control corresponds to S. aureus and K. pneumoniae without API.

The subject of the next series is S. aureus. The series can be described thus: Plate antimicrobial tests. It is filed as cell-based. The conditions noted are these: plate test; strain not given. How it is done: as §1
In a further series the test system is K. pneumoniae biofilm. The series can be described thus: Biofilm eradication test (MBEC assay with Calgary Biofilm Device). It is filed as cell-based, Klebsiella pneumoniae. On the procedure:
The eradication tests were performed by adding free or loaded and/or supported API after the maturation of a biofilm for 24 hours. VCN was tested against S. aureus and NTF against […]. […] The log reduction was calculated according to the following formula: Log reduction (LR)=Log10(mean number of CPUs without […] number of CFUs after treatment), where CFUs are Colony Formation Units. Correspondingly, the eradication percentage P was calculated according to the following formula: […] Testing was performed by MBEC assay with Calgary Biofilm Device.

A further series has as its system S. aureus biofilm. The series is described as above. It is filed as cell-based, Staphylococcus aureus. How it is done:
The eradication tests were performed by adding free or loaded and/or supported API after the maturation of a biofilm for 24 hours.
VCN was tested against S. aureus and NTF against T. pneumoniae.
The log reduction was calculated according to the following formula:
Log reduction (LR)=Log10(mean number of CPUs without reatment)/(mean number of CFUs after treatment), where CFUs are Colony Formation Units.
Correspondingly, the eradication percentage P was calculated according to the following formula: […]
Testing was performed by MBEC assay with Calgary Biofilm Device.

One may read the LogP as a log measure of how a compound divides between an organic and an aqueous phase.

For `COc1ccc2c(c1)c(CC(=O)O)c(C)n2C(=O)c1ccc(Cl)cc1` [INDM], the LogP in series [1] was 4.27. Further, in series [2], the “Solubility H2O” value is 80 µg/mL (≈ 224 µM).

Regarding `CC(=O)N[C@@H](CS)C(=O)O` [NAC, N-acetyl-L-cysteine], the “concentration below which no antibacterial activity is exhibited” value in the series with K. pneumoniae and in the series with S. aureus was 1 to 2 mg/mL each time. Further, the LogP in series [1] is on record as −0.03.

With `O=C1CN(/N=C/c2ccc([N+](=O)[O-])o2)C(=O)N1` [NTF, Nitrofurantoin], in the series with K. pneumoniae biofilm (K. pneumoniae preformed biofilm (24 hours), highest concentration tested), the “Log Reduction Log (CFU/ml) ± SD” value is 2.5 ± 1.0 Log (CFU/ml). Also, the “P (%) eradication percentage” value in the series on K. pneumoniae biofilm (K. pneumoniae preformed biofilm, P=[1−10^−LR]*100) is 99.7%. Besides, the “Solubility H2O” value in series [2] was 80 µg/mL (≈ 336 µM).

For `CN[C@H](CC(C)C)C(=O)N[C@H]1C(=O)N[C@@H](CC(N)=O)C(=O)N[C@H]2C(=O)N[C@H]3C(=O)N[C@H](C(=O)N[C@H](C(=O)O)c4cc(O)cc(O)c4-c4cc3ccc4O)[C@H](O)c3ccc(c(Cl)c3)Oc3cc2cc(c3O[C@@H]2O[C@H](CO)[C@@H](O)[C@H](O)[C@H]2O[C@H]2C[C@](C)(N)[C@H](O)[C@H](C)O2)Oc2ccc(cc2Cl)[C@H]1O` [VCN, vancomycin], the “Solubility H2O” value in series [2] was more than 50000 µg/mL. In addition, the “Log Reduction Log (CFU/ml) ± SD” value in the series on S. aureus biofilm (S. aureus preformed biofilm (24 hours), highest concentration tested) is given as 2.0 ± 0.4 Log (CFU/ml). Further, the “P (%) eradication percentage” value in the series with S. aureus biofilm (S. aureus preformed biofilm, P=[1−10^−LR]*100) was 99.0%.
